One assay has as its target mTOR/GbL/Raptor (mTORC1) (Homo sapiens, UniProt P42345). Kind of assay: mTOR/GbL/Raptor (mTORC1) ELISA Assay. Type of assay: biochemical. As to conditions: 4E-BP1 phosphorylation, 0.2 nM mTORC1, 10 μM ATP; last bin: >= 2,000 nM or not active under the conditions the assay was run; read-out: IC50 in this assay (mTORC1). The protocol:
The measurement of mTORC1 enzyme activity was performed in an ELISA assay format following the phosphorylation of 4E-BP1 protein. All experiments were performed in the 384-well format. Generally, 0.5 μL DMSO containing varying concentrations of the test Compound was mixed with 15 μL enzyme solution. Kinase reactions were initiated with the addition of 15 μL of substrates-containing solution. The assay conditions were as follows; 0.2 nM mTORC1, 10 μM ATP and 50 nM NHis-tagged 4E-BPI in 20 mM Hepes, pH 7.2, 1 mM DTT, 50 mM NaCl, 10 mM MnCl2, 0.02 mg/mL BSA, 0.01% CHAPS, 50 mM β-glycerophosphate. Following an incubation of 120 minutes at ambient temperature, 20 μL of the reaction volume was transferred to a Ni-Chelate-coated 384-well plate. The binding step of the 4E-BP1 protein proceeded for 60 minutes, followed by washing 4 times each with 50 μL of Tris-buffered saline solution (TBS). Anti-phospho-4E-BP1 rabbit-IgG (20 μL, 1:5000) in 5% BSA-TBST (0.2% Tween-20 in TBS) was added and further incubated for 60 minutes. Incubation with a secondary HRP-tagged anti-IgG was similarly performed after washing off the primary antibody (4 washes of 50 μL). Following the final wash step with TBST, 20 μL of SuperSignal ELISA Femto (Pierce Biotechnology) was added and the luminescence measured using an EnVision plate reader.
For orientation: ELISA stands for enzyme-linked immunosorbent assay.

In the next assay the target is PI3Kα (Homo sapiens, UniProt P42336). Description: PI3K Biochemical Assay (ATP consumed, luciferase-luciferin chemiluminescence). As to conditions: 1 μM ATP, 10 μM PIP2; last bin: >= 2,000 nM or not active under the conditions the assay was run; read-out: IC50 for PI3Kα in this assay. The protocol:
PI3Kα activity is measured as the percent of ATP consumed following the kinase reaction using luciferase-luciferin-coupled chemiluminescence. Reactions were conducted in 384-well white, medium binding microtiter plates (Greiner). Kinase reactions were initiated by combining test compounds, ATP, substrate (PIP2), and kinase in a 20 μL volume in a buffer solution. The standard PI3Kalpha assay buffer is composed 50 mM Tris, pH 7.5, 1 mM EGTA, 10 mM MgCl2, 1 mM DTT and 0.03% CHAPS. The standard assay concentrations for enzyme, ATP, and substrate are 1.5 nM, 1 μM, and 10 μM, respectively. The reaction mixture was incubated at ambient temperature for approximately 2 h. Following the kinase reaction, a 10 μL aliquot of luciferase-luciferin mix (Promega Kinase-Glo) was added and the chemiluminescence signal measured using a Victor2 plate reader (Perkin Elmer). Total ATP consumption was limited to 40-60% and IC50 values of control compounds correlate well with literature references. Substituting PI3Kα with PI3Kβ, PI3Kγ, or PI3Kδ, the inhibitory activity of the compounds for the other isoforms of I3K were measured.

SMILES strings stand for the structures.

Sequence of PI3Kα (P42336 whole entry): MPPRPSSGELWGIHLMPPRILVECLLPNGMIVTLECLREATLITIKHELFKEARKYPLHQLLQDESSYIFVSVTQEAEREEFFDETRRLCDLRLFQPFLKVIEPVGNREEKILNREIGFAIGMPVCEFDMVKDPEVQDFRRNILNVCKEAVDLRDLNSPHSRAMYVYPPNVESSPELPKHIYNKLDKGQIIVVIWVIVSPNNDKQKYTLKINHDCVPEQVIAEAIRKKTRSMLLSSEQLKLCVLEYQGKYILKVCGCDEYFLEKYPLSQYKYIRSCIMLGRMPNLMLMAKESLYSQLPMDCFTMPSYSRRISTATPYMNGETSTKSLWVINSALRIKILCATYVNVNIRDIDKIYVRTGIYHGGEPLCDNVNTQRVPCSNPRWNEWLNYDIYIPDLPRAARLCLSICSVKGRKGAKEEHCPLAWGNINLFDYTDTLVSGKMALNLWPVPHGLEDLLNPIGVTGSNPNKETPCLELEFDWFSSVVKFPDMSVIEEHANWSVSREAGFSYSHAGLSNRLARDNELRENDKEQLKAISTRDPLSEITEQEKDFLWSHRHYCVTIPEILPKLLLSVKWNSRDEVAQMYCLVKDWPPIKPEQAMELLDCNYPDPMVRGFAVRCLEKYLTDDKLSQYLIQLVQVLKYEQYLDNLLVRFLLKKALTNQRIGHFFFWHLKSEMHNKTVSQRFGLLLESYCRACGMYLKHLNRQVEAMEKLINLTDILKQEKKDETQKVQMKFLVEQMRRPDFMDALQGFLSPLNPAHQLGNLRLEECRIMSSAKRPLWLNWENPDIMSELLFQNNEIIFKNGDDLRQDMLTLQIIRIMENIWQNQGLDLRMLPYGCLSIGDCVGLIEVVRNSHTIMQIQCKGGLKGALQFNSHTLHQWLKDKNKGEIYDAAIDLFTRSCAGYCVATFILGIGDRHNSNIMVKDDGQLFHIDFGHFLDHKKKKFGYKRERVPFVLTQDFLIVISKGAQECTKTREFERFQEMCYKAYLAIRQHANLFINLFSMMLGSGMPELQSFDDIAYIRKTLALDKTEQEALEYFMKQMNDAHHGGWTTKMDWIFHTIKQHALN
Sequence of PI3Kα (P27986 whole entry partner): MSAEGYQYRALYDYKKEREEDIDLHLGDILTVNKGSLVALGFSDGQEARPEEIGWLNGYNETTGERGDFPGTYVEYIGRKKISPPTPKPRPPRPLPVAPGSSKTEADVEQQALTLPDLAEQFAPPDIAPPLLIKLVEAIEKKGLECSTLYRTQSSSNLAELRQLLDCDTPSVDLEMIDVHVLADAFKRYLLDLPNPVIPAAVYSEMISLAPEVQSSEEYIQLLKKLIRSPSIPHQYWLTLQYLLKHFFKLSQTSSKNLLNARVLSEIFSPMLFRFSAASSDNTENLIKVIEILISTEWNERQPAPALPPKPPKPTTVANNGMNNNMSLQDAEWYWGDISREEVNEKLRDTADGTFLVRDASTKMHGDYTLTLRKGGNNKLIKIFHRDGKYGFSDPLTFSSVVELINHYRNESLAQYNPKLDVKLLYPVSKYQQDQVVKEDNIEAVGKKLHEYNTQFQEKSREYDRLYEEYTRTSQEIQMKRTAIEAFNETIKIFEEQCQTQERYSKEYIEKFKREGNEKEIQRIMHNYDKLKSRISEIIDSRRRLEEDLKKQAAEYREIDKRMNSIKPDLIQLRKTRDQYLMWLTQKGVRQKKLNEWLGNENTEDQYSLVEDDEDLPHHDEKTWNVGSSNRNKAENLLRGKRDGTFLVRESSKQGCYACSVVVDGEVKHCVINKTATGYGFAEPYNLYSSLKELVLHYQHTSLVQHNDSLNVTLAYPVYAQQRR

Consider `CC1(C)CCc2ncnc(N3CCOc4ccc(-c5cnc6c(c5)OCCN6)cc4C3)c2C1` [Compound 569, 7-(3,4-dihydro-2H-pyrido[3,2-b][1,4]oxazin-7-yl)-4-(6,6-dimethyl-5,6,7,8-tetrahydroquinazolin-4-yl)-2,3,4,5-tetrahydro-1,4-benzoxazepine], for which, at mTOR/GbL/Raptor (mTORC1), the IC50 (commonly the concentration at which inhibition is half-maximal) was in the range of 0.05 to 0.25 µM.
On to `Cc1nc2ccc(-c3ccc4c(c3)CN(c3cc(-c5ccccc5)nc(-c5ccccc5)n3)CCO4)cc2[nH]1` [Compound 7], for which, at PI3Kα, the IC50 is at least 2 µM.
In the case of `Cc1nc2cc(-c3ccc4c(c3)CN(c3nc([C@@H]5CCCN5C(=O)OCc5ccccc5)nc5c3CC(C)(C)CC5)CCO4)cnc2[nH]1` [Compound 645, phenylmethyl (2S)-2-{6,6-dimethyl-4-[7-(2-methyl-3H-imidazo[4,5-b]pyridin-6-yl)-2,3-dihydro-1,4-benzoxazepin-4(5H)-yl]-5,6,7,8-tetrahydroquinazolin-2-yl}pyrrolidine-1-carboxylate], the IC50 at PI3Kα lay in the range of 1 to 2 µM.
As for `Cc1nc2ccc(-c3ccc4c(c3)CN(c3ncnc5c(Br)cccc35)CCO4)cc2[nH]1` [Compound 25, 4-(8-bromoquinazolin-4-yl)-7-(2-methyl-1H-benzimidazol-6-yl)-2,3,4,5-tetrahydro-1,4-benzoxazepine], at mTOR/GbL/Raptor (mTORC1), the IC50 is 0.05 to 0.25 µM.
For the molecule `CCNc1nc2ccc(-c3ccc4c(c3)CN(c3cc(C)nc5cc(F)ccc35)CCO4)cc2[nH]1` [Compound 641, N-ethyl-6-[4-(7-fluoro-2-methylquinolin-4-yl)-2,3,4,5-tetrahydro-1,4-benzoxazepin-7-yl]-1H-benzimidazol-2-amine], the IC50 on mTOR/GbL/Raptor (mTORC1) lay within 0.05 to 0.25 µM.
With `Cn1ccc2cc(-c3ccc4c(c3)CN(c3ccnc5ccccc35)CCO4)ccc21` [Compound 133, 7-(1-methyl-1H-indol-5-yl)-4-quinolin-4-yl-2,3,4,5-tetrahydro-1,4-benzoxazepine], the IC50 on mTOR/GbL/Raptor (mTORC1) lay in the range of 1 to 2 µM.
Still for that read-out and setting: to `Cc1nc2ccc(-c3ccc4c(c3)CN(c3ncnc5ccc(Cl)cc35)CCO4)cc2[nH]1` [Compound 13, 4-(6-chloroquinazolin-4-yl)-7-(2-methyl-1H-benzimidazol-6-yl)-2,3,4,5-tetrahydro-1,4-benzoxazepine] belongs at most 0.01 µM.
On to `CCN(CC)c1nc(N2CCOc3ccc(-c4ccc5nc(C)[nH]c5c4)cc3C2)c2ccccc2n1` [Compound 6], for which the IC50 on PI3Kα is at least 2 µM.
On to `Cc1nc2ccc(-c3ccc4c(c3)CN(c3nc(C(C)(C)O)nc5c3CC(C)(C)CC5)CCO4)cc2[nH]1` [Compound 362, 2-{6,6-dimethyl-4-[7-(2-methyl-1H-benzimidazol-6-yl)-2,3-dihydro-1,4-benzoxazepin-4(5H)-yl]-5,6,7,8-tetrahydroquinazolin-2-yl}propan-2-ol], for which the IC50 on mTOR/GbL/Raptor (mTORC1) was in the range of 0.05 to 0.25 µM.
Consider `CC1(C)CCc2ncnc(N3CCOc4ccc(-c5ccc6nc[nH]c6c5)cc4C3)c2C1` [Compound 219, 7-(1H-benzimidazol-6-yl)-4-(6,6-dimethyl-5,6,7,8-tetrahydroquinazolin-4-yl)-2,3,4,5-tetrahydro-1,4-benzoxazepine], for which the IC50 at mTOR/GbL/Raptor (mTORC1) was at most 0.01 µM.
For `Cc1nc2ccc(-c3ccc4c(c3)CN(c3ccncn3)CCO4)cc2[nH]1` [Compound 2, 7-(2-methyl-1H-benzimidazol-6-yl)-4-pyrimidin-4-yl-2,3,4,5-tetrahydro-1,4-benzoxazepine], the IC50 at mTOR/GbL/Raptor (mTORC1) was at least 2 µM.
Regarding `COC(=O)Nc1nc2ccc(-c3ccc4c(c3)CN(c3ncnc5c3CC(C)(C)CC5)CCO4)cc2[nH]1` [Compound 235, methyl {6-[4-(6,6-dimethyl-5,6,7,8-tetrahydroquinazolin-4-yl)-2,3,4,5-tetrahydro-1,4-benzoxazepin-7-yl]-1H-benzimidazol-2-yl}carbamate], the IC50 at mTOR/GbL/Raptor (mTORC1) fell in the range of 0.05 to 0.25 µM.
The same measure, in the same setting: the value for `CC1(C)CCc2ncnc(N3CCOc4ccc(-c5cnc(NCc6ccccc6)c(NS(C)(=O)=O)c5)cc4C3)c2C1` [Compound 630, N-{5-[4-(6,6-dimethyl-5,6,7,8-tetrahydroquinazolin-4-yl)-2,3,4,5-tetrahydro-1,4-benzoxazepin-7-yl]-2-[(phethylmethyl)amino]pyridin-3-yl}methanesulfonamide] was at least 2 µM; that for `CC1(C)CCc2ncnc(N3CCOc4ccc(-c5cnc(N)c(S(=O)(=O)N6CCC(N)C6)c5)cc4C3)c2C1` (stereo not shown) [Compound 445, 3-[(3-aminopyrrolidin-1-yl)sulfonyl]-5-[4-(6,6-dimethyl-5,6,7,8-tetrahydroquinazolin-4-yl)-2,3,4,5-tetrahydro-1,4-benzoxazepin-7-yl]pyridin-2-amine] was 0.01 to 0.05 µM; that for `CC(C)(O)CCS(=O)(=O)c1cc(-c2ccc3c(c2)CN(c2ncnc4c2CC(C)(C)CC4)CCO3)cnc1N` [Compound 459, 4-({2-amino-5-[4-(6,6-dimethyl-5,6,7,8-tetrahydroquinazolin-4-yl)-2,3,4,5-tetrahydro-1,4-benzoxazepin-7-yl]pyridin-3-yl}sulfonyl)-2-methylbutan-2-ol] was 0.05 to 0.25 µM.
As for `Cc1nc2cc(-c3ccc4c(c3)CN(c3nc(N)nc(C)c3Cc3ccc(F)cc3)CCO4)ccc2[nH]1` [Compound 660, 5-[(4-fluorophenyl)methyl]-4-methyl-6-[7-(2-methyl-1H-benzimidazol-5-yl)-2,3-dihydro-1,4-benzoxazepin-4(5H)-yl]pyrimidin-2-amine], at mTOR/GbL/Raptor (mTORC1), the IC50 is at most 0.01 µM.
The same measure, in the same setting: the value for `Cc1nc2cc(-c3ccc4c(c3)CN(c3nc(CN(C)C)nc(C)c3C)CCO4)cnc2[nH]1` [Compound 335, 1-{4,5-dimethyl-6-[7-(2-methyl-3H-imidazo[4,5-b]pyridin-6-yl)-2,3-dihydro-1,4-benzoxazepin-4(5H)-yl]pyrimidin-2-yl}-N,N-dimethylmethanamine] was 1 to 2 µM.
Take `Cn1cnc2cc(-c3ccc4c(c3)CN(c3ccnc5ccccc35)CCO4)ccc21` [Compound 130, 7-(1-methyl-1H-benzimidazol-5-yl)-4-quinolin-4-yl-2,3,4,5-tetrahydro-1,4-benzoxazepine]: the IC50 was 0.25 to 1 µM at mTOR/GbL/Raptor (mTORC1) and 1 to 2 µM at PI3Kα.
Regarding `Cc1nc2cc(-c3ccc4c(c3)CN(c3nc(C5CCCN5)nc5c3CC(C)(C)CC5)CCO4)cnc2[nH]1` (stereo not shown) [Compound 474, 4-(6,6-dimethyl-2-pyrrolidin-2-yl-5,6,7,8-tetrahydroquinazolin-4-yl)-7-(2-methyl-3H-imidazo[4,5-b]pyridin-6-yl)-2,3,4,5-tetrahydro-1,4-benzoxazepine], the IC50 on mTOR/GbL/Raptor (mTORC1) is at most 0.01 µM.
Same read-out and setting: the value for `Cc1nc2ccc(-c3ccc4c(c3)CN(c3ncnc5ccc(Br)cc35)CCO4)cc2[nH]1` [Compound 12, 4-(6-bromoquinazolin-4-yl)-7-(2-methyl-1H-benzimidazol-6-yl)-2,3,4,5-tetrahydro-1,4-benzoxazepine] was at most 0.01 µM; that for `CCNc1nc2ccc(-c3ccc4c(c3)CN(c3nc(C)nc5cc(O)ccc35)CCO4)cc2[nH]1` [Compound 285, 4-{7-[2-(ethylamino)-1H-benzimidazol-6-yl]-2,3-dihydro-1,4-benzoxazepin-4(5H)-yl}-2-methylquinazolin-7-ol] was 0.05 to 0.25 µM.
